{
  "source": "PubChem BioAssay AID330",
  "about": "(DTP/NCI, 2004)",
  "system": "P388 leukemia ip, CD2F1 mice, survival T/C",
  "assay": "NCI In Vivo Anticancer Drug Screen. Data for tumor model P388 Leukemia (intraperitoneal) in CD2F1 (CDF1) mice",
  "settings": "endpoint: median survival time, higher = longer survival",
  "summary_of_the_method": "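Mice carrying the transplanted tumor received test compound or vehicle. Survival was recorded in each group, and the value is the treated-group measurement divided by that of the vehicle-treated control group.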",
  "key": {"[1]": {"settings": "dose: 25.0 mg/kg/injection, schedule: Q01DX009 (ip), vehicle: saline with Tween-80"}, "[2]": {"settings": "dose: 60.0 mg/kg/injection, schedule: Q01DX005 (ip), vehicle: saline"}, "[3]": {"settings": "dose: 60.0 mg/kg/injection, schedule: Q01DX005 (ip), vehicle: saline with Tween-80"}, "[4]": {"settings": "dose: 120.0 mg/kg/injection, schedule: Q01DX005 (ip), vehicle: saline with Tween-80"}, "[5]": {"settings": "dose: 240.0 mg/kg/injection, schedule: Q01DX005 (ip), vehicle: saline with Tween-80"}, "[6]": {"settings": "dose: 50.0 mg/kg/injection, schedule: Q01DX005 (ip), vehicle: saline with Tween-80"}, "[7]": {"settings": "dose: 100.0 mg/kg/injection, schedule: Q01DX005 (ip), vehicle: saline with Tween-80"}, "[8]": {"settings": "dose: 200.0 mg/kg/injection, schedule: Q01DX005 (ip), vehicle: saline with Tween-80"}},
  "note": "Several values for one entry are separate records, joined by “and”; a condition that tells them apart may be missing. Equal values may be shown once. Inconclusive results and toxic doses are left out.",
  "data": [
    {"molecule": "Nc1ncnc2c1cnn2C1OC(CO)C(O)C1O", "note": "(configuration not stated)", "values": [
      {"measurement": "T/C", "setting": "dose: 16.5 mg/kg/injection, schedule: Q01DX009 (ip), vehicle: saline with Tween-80", "value": "152 % of control"},
      {"measurement": "T/C", "setting": "[1]", "value": "154 % of control"},
      {"measurement": "T/C", "setting": "dose: 37.5 mg/kg/injection, schedule: Q01DX009 (ip), vehicle: saline with Tween-80", "value": "124 % of control"}
    ]},
    {"molecule": "N#Cc1nc(CC(=O)c2ccncc2)c(CC(=O)c2ccncc2)nc1C#N", "values": [
      {"measurement": "T/C", "setting": "[2]", "value": "109 % of control"},
      {"measurement": "T/C", "setting": "dose: 120.0 mg/kg/injection, schedule: Q01DX005 (ip), vehicle: saline", "value": "106 % of control"},
      {"measurement": "T/C", "setting": "dose: 240.0 mg/kg/injection, schedule: Q01DX005 (ip), vehicle: saline", "value": "97 % of control"}
    ]},
    {"molecule": "O=C(CNC(=O)Nc1cccc([N+](=O)[O-])c1)NNC(=O)Nc1ccccc1F", "values": [
      {"measurement": "T/C", "setting": "[3]", "value": "101 % of control"},
      {"measurement": "T/C", "setting": "[4]", "value": "101 % of control"},
      {"measurement": "T/C", "setting": "[5]", "value": "99 % of control"}
    ]},
    {"molecule": "C[C@@H]1[C@H](c2ccccc2)OCN1C", "values": [
      {"measurement": "T/C", "setting": "dose: 12.5 mg/kg/injection, schedule: Q01DX005 (ip), vehicle: saline", "value": "101 % of control and 93 % of control"},
      {"measurement": "T/C", "setting": "dose: 25.0 mg/kg/injection, schedule: Q01DX005 (ip), vehicle: saline", "value": "101 % of control"},
      {"measurement": "T/C", "setting": "dose: 30.0 mg/kg/injection, schedule: Q01DX005 (ip), vehicle: saline", "value": "111 % of control"},
      {"measurement": "T/C", "setting": "dose: 50.0 mg/kg/injection, schedule: Q01DX005 (ip), vehicle: saline", "value": "109 % of control and 124 % of control"},
      {"measurement": "T/C", "setting": "[2]", "value": "118 % of control"},
      {"measurement": "T/C", "setting": "dose: 100.0 mg/kg/injection, schedule: Q01DX005 (ip), vehicle: saline", "value": "111 % of control and 120 % of control"},
      {"measurement": "T/C", "setting": "dose: 200.0 mg/kg/injection, schedule: Q01DX005 (ip), vehicle: saline", "value": "109 % of control"}
    ]},
    {"molecule": "CNC(=O)c1ccccc1C1(O)c2ccccc2CCc2ccccc21", "values": [
      {"measurement": "T/C", "setting": "[6]", "value": "94 % of control"},
      {"measurement": "T/C", "setting": "[7]", "value": "93 % of control"},
      {"measurement": "T/C", "setting": "[8]", "value": "90 % of control"}
    ]},
    {"molecule": "Cc1ccc(S(=O)(=O)NC(=O)NC2=NC(C)(C)N(c3ccc(Cl)c(Cl)c3)C(N)=N2)cc1", "values": [
      {"measurement": "T/C", "setting": "[3]", "value": "105 % of control"},
      {"measurement": "T/C", "setting": "[4]", "value": "108 % of control"},
      {"measurement": "T/C", "setting": "[5]", "value": "114 % of control"}
    ]},
    {"molecule": "Cc1ccccc1CN1C2=NCCN2C(=O)C2=C1CCN(S(=O)(=O)c1ccc(Cl)c(S(N)(=O)=O)c1)C2", "values": [
      {"measurement": "T/C", "setting": "dose: 50.0 mg/kg/injection, schedule: Q01DX009 (ip), vehicle: saline", "value": "96 % of control"},
      {"measurement": "T/C", "setting": "dose: 100.0 mg/kg/injection, schedule: Q01DX009 (ip), vehicle: saline", "value": "97 % of control"},
      {"measurement": "T/C", "setting": "dose: 200.0 mg/kg/injection, schedule: Q01DX009 (ip), vehicle: saline", "value": "90 % of control"}
    ]},
    {"molecule": "CC1=CC(=O)C(=Ic2ccccc2)C(=O)O1", "values": [
      {"measurement": "T/C", "setting": "dose: 50.0 mg/kg/injection, schedule: Q01DX005 (ip), vehicle: Klucel (hydroxypropylcellulose) (HPC)", "value": "100 % of control"},
      {"measurement": "T/C", "setting": "dose: 100.0 mg/kg/injection, schedule: Q01DX005 (ip), vehicle: Klucel (hydroxypropylcellulose) (HPC)", "value": "98 % of control"},
      {"measurement": "T/C", "setting": "dose: 200.0 mg/kg/injection, schedule: Q01DX005 (ip), vehicle: Klucel (hydroxypropylcellulose) (HPC)", "value": "104 % of control"}
    ]},
    {"molecule": "NC(=S)Nc1cccc2ccccc12", "values": [
      {"measurement": "T/C", "setting": "dose: 6.25 mg/kg/injection, schedule: Q01DX009 (ip), vehicle: saline with Tween-80", "value": "100 % of control and 112 % of control"},
      {"measurement": "T/C", "setting": "dose: 12.5 mg/kg/injection, schedule: Q01DX009 (ip), vehicle: saline with Tween-80", "value": "113 % of control and 94 % of control"},
      {"measurement": "T/C", "setting": "[1]", "value": "104 % of control and 91 % of control"},
      {"measurement": "T/C", "setting": "dose: 50.0 mg/kg/injection, schedule: Q01DX009 (ip), vehicle: saline with Tween-80", "value": "94 % of control"}
    ]},
    {"molecule": "CSCCC(C(=O)O)N1C(=O)C=CC1=O", "note": "(configuration not stated)", "values": [
      {"measurement": "T/C", "setting": "dose: 11.25 mg/kg/injection, schedule: Q01DX009 (ip), vehicle: saline with Tween-80", "value": "97 % of control"},
      {"measurement": "T/C", "setting": "dose: 22.5 mg/kg/injection, schedule: Q01DX009 (ip), vehicle: saline with Tween-80", "value": "97 % of control"},
      {"measurement": "T/C", "setting": "dose: 45.0 mg/kg/injection, schedule: Q01DX009 (ip), vehicle: saline with Tween-80", "value": "100 % of control and 88 % of control"}
    ]},
    {"molecule": "COc1cc2c(cc1OC)CN1CCc3cc(OC)c(OC)cc3C1C2", "note": "(configuration not stated)", "values": [
      {"measurement": "T/C", "setting": "[6]", "value": "99 % of control"},
      {"measurement": "T/C", "setting": "[7]", "value": "94 % of control"},
      {"measurement": "T/C", "setting": "[8]", "value": "91 % of control"}
    ]},
    {"molecule": "CC(=O)n1c2ccccc2c2c(C)c3c[n+]([O-])ccc3c(C)c21", "values": [
      {"measurement": "T/C", "setting": "dose: 12.5 mg/kg/injection, schedule: Q04DX002 (ip), vehicle: saline with Tween-80", "value": "100 % of control"},
      {"measurement": "T/C", "setting": "dose: 25.0 mg/kg/injection, schedule: Q04DX002 (ip), vehicle: saline with Tween-80", "value": "110 % of control"},
      {"measurement": "T/C", "setting": "dose: 50.0 mg/kg/injection, schedule: Q04DX002 (ip), vehicle: saline with Tween-80", "value": "122 % of control"},
      {"measurement": "T/C", "setting": "dose: 200.0 mg/kg/injection, schedule: Q04DX002 (ip), vehicle: saline with Tween-80", "value": "93 % of control"}
    ]}
  ]
}
